Consider 28 molecules from BindingDB's records for doi:10.7270/Q2DF6PMF (Nmmlsc, 2007).

pIC50, pKi: −log10 of the molar value.

For this assay, the target named is T1, N-formyl peptide receptor 2 (Homo sapiens, UniProt P25090).
T1 sequence (P25090 whole entry): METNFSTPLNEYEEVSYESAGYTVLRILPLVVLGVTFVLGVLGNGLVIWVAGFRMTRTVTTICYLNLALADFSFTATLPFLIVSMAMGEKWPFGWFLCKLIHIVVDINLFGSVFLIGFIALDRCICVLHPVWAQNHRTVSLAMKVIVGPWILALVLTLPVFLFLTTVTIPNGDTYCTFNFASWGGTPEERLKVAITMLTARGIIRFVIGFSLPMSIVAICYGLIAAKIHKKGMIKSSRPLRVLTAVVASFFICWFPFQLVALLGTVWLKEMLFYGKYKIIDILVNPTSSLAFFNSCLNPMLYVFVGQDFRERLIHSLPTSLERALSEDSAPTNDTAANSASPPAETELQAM
The assay can be described thus: concentration-dependent FPRL1 ligand displacement – cell-based, FPR counter-screen, fluorescent ligand, dose response (AID 520).
`COc1cc2c3c(c1)/C(=C1/SC(NC(C)=O)=NC1=O)C(=O)N3C(C)(C)C=C2C` [N-[5-(8-methoxy-4,4,6-trimethyl-2-oxo-4H-pyrrolo[3,2,1-ij]quinolin-1(2H)-ylidene)-4-oxo-4,5-dihydro-1,3-thiazol-2-yl]acetamide]: the pIC50 is < 4.18.
As to `COc1ccc(C2C(C(=O)c3cccs3)C(=O)C(=O)N2c2nnc(C)s2)cc1OC` (stereo unspecified) [2-(3,4-dimethoxyphenyl)-1-(5-methyl-1,3,4-thiadiazol-2-yl)-4-oxidanyl-3-thiophen-2-ylcarbonyl-2H-pyrrol-5-one], the negative-log IC50 (pIC50) was < 4.18 and the pKi was < 4.39.
In the same order, the values of `CCCOc1ccc(C2C(C(=O)c3ccc(C)o3)C(=O)C(=O)N2Cc2cccnc2)cc1` (stereo unspecified) [3-(5-methylfuran-2-yl)carbonyl-4-oxidanyl-2-(4-propoxyphenyl)-1-(pyridin-3-ylmethyl)-2H-pyrrol-5-one] are < 4.18 and < 4.39.
In the same order, the values of `COCCCN1C(=O)C(=O)C(C(=O)c2ccco2)C1c1ccccc1` (stereo unspecified) [3-(furan-2-carbonyl)-4-hydroxy-1-(3-methoxypropyl)-2-phenyl-2H-pyrrol-5-one] are < 4.18 and < 4.39.
Regarding `C=CCOc1ccc(C2C(C(=O)c3cccs3)C(=O)C(=O)N2c2nnc(C)s2)cc1` (stereo unspecified) [1-(5-methyl-1,3,4-thiadiazol-2-yl)-4-oxidanyl-2-(4-prop-2-enoxyphenyl)-3-thiophen-2-ylcarbonyl-2H-pyrrol-5-one], the negative-log IC50 (pIC50) was < 4.18 and the negative-log Ki (pKi) is < 4.39.
In the same order, the values of `O=C1C(=O)N(CC2CCCO2)C(c2cccnc2)C1C(=O)c1ccco1` (stereo unspecified) [3-(furan-2-carbonyl)-4-hydroxy-1-(oxolan-2-ylmethyl)-2-pyridin-3-yl-2H-pyrrol-5-one] are < 4.18 and < 4.39.
For the molecule `O=C(O)C1CC=CCC1C(=O)N1CCN(c2nc(-c3ccccc3)c3ccccc3n2)CC1` (stereo unspecified) [6-[4-(4-phenylquinazolin-2-yl)piperazin-1-yl]carbonylcyclohex-3-ene-1-carboxylic acid], the pIC50 is < 4.18.
The same measure, in the same setting: as for `CCOC(=O)c1sc(=S)n2c1[nH]c(=O)c1ccc(C(=O)OC)cc12` [MLS000094734], the figure is < 4.18.
Take `COc1cccc(C2C(C(=O)c3ccc(OC)c(OC)c3)C(=O)C(=O)N2c2cc(C)on2)c1` (stereo unspecified) [(4E)-4-[(3,4-dimethoxyphenyl)-hydroxy-methylene]-5-(3-methoxyphenyl)-1-(5-methylisoxazol-3-yl)pyrrolidine-2,3-quinone]: the pIC50 was < 4.18 and the negative logarithm of the Ki (pKi) was < 4.39.
For the molecule `COc1ccc(-c2cc(C(F)(F)F)nc(N3CCN(c4ccccc4)CC3)n2)cc1OC` [4-(3,4-dimethoxyphenyl)-2-(4-phenyl-1-piperazinyl)-6-(trifluoromethyl)pyrimidine], the pIC50 is < 4.18.
Regarding `COC(=O)c1[nH]c(C)c(C(=O)C2C(=O)C(=O)N(CCN3CCOCC3)C2c2cccnc2)c1C` (stereo unspecified) [4-[(E)-hydroxy-[1-[2-(4-morpholinyl)ethyl]-4,5-dioxo-2-(3-pyridinyl)-3-pyrrolidinylidene]methyl]-3,5-dimethyl-1H-pyrrole-2-carboxylic acid methyl ester], the negative-log IC50 (pIC50) was < 4.18 and the pKi is < 4.39.
In the case of `Cc1cc(NC(=O)CSc2nnc(Cn3c(=O)sc4ccccc43)n2-c2ccccc2C)no1` [N-(5-methyl-3-isoxazolyl)-2-[[4-(2-methylphenyl)-5-[(2-oxo-1,3-benzothiazol-3-yl)methyl]-1,2,4-triazol-3-yl]thio]acetamide], the negative logarithm of the IC50 (pIC50) is < 4.18.
On to `O=C1C(=O)N(Cc2ccccc2)C(c2ccco2)C1C(=O)c1ccco1` (stereo unspecified) [1-Benzyl-4-(furan-2-carbonyl)-5-furan-2-yl-3-hydroxy-1,5-dihydro-pyrrol-2-one], for which the negative logarithm of the IC50 (pIC50) was < 4.18 and the negative-log Ki (pKi) is < 4.39.
As to `COc1ccc(C)cc1NC(=O)C1CCCCC1C(=O)O` (stereo unspecified) [2-[(2-methoxy-5-methyl-phenyl)carbamoyl]cyclohexane-1-carboxylic acid], the pIC50 is < 4.18.
Still for that read-out and setting: the result for `CCOC(=O)c1c(-c2ccc(-c3ccccc3)cc2)csc1NC(=O)C1C2CCC(O2)C1C(=O)O` (stereo unspecified) reads < 4.18.
The same measure, in the same setting: the result for `O=C(NCC1CCCO1)c1ccc(NC(=O)C2CCCCC2C(=O)O)cc1` (stereo unspecified) [2-[[4-(oxolan-2-ylmethylcarbamoyl)phenyl]carbamoyl]cyclohexane-1-carboxylic acid] reads < 4.18.
`CCCOc1ccc(C2C(C(=O)c3ccc(C)o3)C(=O)C(=O)N2CCCn2ccnc2)cc1` (stereo unspecified) [1-(3-imidazol-1-ylpropyl)-3-(5-methylfuran-2-yl)carbonyl-4-oxidanyl-2-(4-propoxyphenyl)-2H-pyrrol-5-one]: the negative-log IC50 (pIC50) was < 4.18 and the pKi is < 4.39.
For the molecule `COc1ccc(-n2c(Cc3cccn3C)nnc2SCC(=O)Nc2ccc(Cl)cc2)cc1` [MLS000118695], the pIC50 was < 4.18.
In the case of `O=C1C(=O)N(Cc2ccccc2)C(c2cccnc2)C1C(=O)c1ccco1` (stereo unspecified) [1-Benzyl-4-(furan-2-carbonyl)-3-hydroxy-5-pyridin-3-yl-1,5-dihydro-pyrrol-2-one], the pIC50 is < 4.18 and the negative-log Ki (pKi) was < 4.39.
As for `Cc1csc(NC(=O)CCn2c(=O)oc3ccccc32)n1` [3-(2-keto-1,3-benzoxazol-3-yl)-N-(4-methylthiazol-2-yl)propionamide], the pIC50 is < 4.18.
Same read-out and setting: the result for `CCOc1ccccc1NC(=O)CSc1nccn1-c1ccccc1` [MLS000090721] reads < 4.18; that for `CCOC(=O)c1oc2cc(O)ccc2c(=O)c1-c1ccccc1OC`, < 4.18; that for `CN1CCN(CCCNC(=O)Nc2cccc3ccccc23)CC1` [1-[3-(4-methyl-1-piperazinyl)propyl]-3-(1-naphthalenyl)urea], < 4.18.
For the molecule `O=C1C(=O)N(Cc2ccco2)C(c2ccccc2)C1C(=O)c1cccs1` (stereo unspecified) [1-(2-furanylmethyl)-4-hydroxy-3-[oxo(thiophen-2-yl)methyl]-2-phenyl-2H-pyrrol-5-one], the pIC50 is < 4.18 and the pKi was < 4.39.
Consider `Cc1sc(NC(=O)C2CCCCC2C(=O)O)c(C(N)=O)c1-c1ccc(C(C)(C)C)cc1` (stereo unspecified) [2-({[3-(aminocarbonyl)-4-(4-tert-butylphenyl)-5-methyl-2-thienyl]amino}carbonyl)cyclohexanecarboxylic acid], for which the negative logarithm of the IC50 (pIC50) was < 4.18.
As to `CSCCC1c2c(-c3cccs3)n[nH]c2OC(=N)C1C#N` (stereo unspecified) [6-azanyl-4-(2-methylsulfanylethyl)-3-thiophen-2-yl-2,4-dihydropyrano[2,3-c]pyrazole-5-carbonitrile], the pIC50 was < 4.18 and the pKi was < 4.39.
The corresponding values for `O=C1C(=O)N(CCOCCO)C(c2cccs2)C1C(=O)c1cccs1` (stereo unspecified) [1-[2-(2-hydroxyethyloxy)ethyl]-4-oxidanyl-2-thiophen-2-yl-3-thiophen-2-ylcarbonyl-2H-pyrrol-5-one] are < 4.18 and < 4.39.
Regarding `C=CCn1c(NC(=O)c2ccccc2)c(C#N)c2nc3ccccc3nc21` [MLS000057035], the pIC50 was < 4.18.
